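Tested at 5 concentrations; 48 h exposure; 96-well plates; endpoints linearly interpolated, else capped at highest concentration. GI50: concentration for 50% inhibition of growth. TGI is the concentration that stops growth completely.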 Where a SMILES comes first, the peptide text is derived from it. [ ]: non-standard residue; d: D form. ξ: configuration not given here. Pentanoyl(2-O,4-OH,5-Cl) = O=C(O)C(O)CC(O)CCl; Ile(3ξ) = CCC(C)[C@H](N)C(=O)O; NMeV = CN[C@H](C(=O)O)C(C)C; NMeA = CN[C@@H](C)C(=O)O; βAla = NCCC(=O)O

Test systems include MDA-MB-231 breast; SK-MEL-5 melanoma; SR leukemia; HOP-62 NSCLC; SK-OV-3 ovarian; CCRF-CEM leukemia; ACHN renal; SNB-19 CNS; EKVX NSCLC; HCC-2998 colon.
Holding throughout (assay): inhibition of tumour cell growth, NCI panel, 48 h

On to `CCC(C)[C@@H]1NC(=O)[C@@H]2CCCN2C(=O)C(CC(O)CCl)OC(=O)CCNC(=O)[C@H](C)N(C)C(=O)[C@H](C(C)C)N(C)C1=O` (some centres not stated) (cyclo([Ile(3ξ)][NMeV][NMeA][βAla][Pentanoyl(2-O,4-OH,5-Cl)]P)), for which the TGI in the experiment with MDA-MB-231 breast is greater than 100 µM; in the experiment on SK-MEL-5 melanoma it was 2.29 µM; with SR leukemia it was greater than 100 µM; in the experiment on HOP-62 NSCLC it was greater than 100 µM; with SK-OV-3 ovarian, greater than 100 µM; in the experiment on CCRF-CEM leukemia, greater than 100 µM. The TGI in the experiment on ACHN renal, in the experiment on SNB-19 CNS and in the experiment with EKVX NSCLC was greater than 100 µM throughout.

With `[Cu].c1ccc2c(c1)C1=NC2=NC2=NC(=NC3=NC(=NC4=NC(=N1)c1ccccc14)c1ccccc13)c1ccccc12`, the GI50 with MDA-MB-231 breast, in the experiment with SK-MEL-5 melanoma, with HOP-62 NSCLC, with SK-OV-3 ovarian, in the experiment on HCC-2998 colon and in the experiment on ACHN renal was greater than 100 µM throughout. Further, the GI50 in the experiment with SNB-19 CNS and with EKVX NSCLC was greater than 100 µM throughout. Besides, the TGI in the experiment on MDA-MB-231 breast, in the experiment with SK-MEL-5 melanoma, with HOP-62 NSCLC, in the experiment with SK-OV-3 ovarian, in the experiment on HCC-2998 colon and in the experiment on ACHN renal was greater than 100 µM throughout. The TGI with SNB-19 CNS and in the experiment on EKVX NSCLC was greater than 100 µM throughout.

For `CCOC(=O)c1sc2nc(=S)[nH]c(NC(N)=S)c2c1C`, the GI50 was 12.1 µM in the experiment with MDA-MB-231 breast; 16.8 µM with SK-MEL-5 melanoma; 20.9 µM with SR leukemia; 21 µM with HOP-62 NSCLC; 20.6 µM with SK-OV-3 ovarian; 7.22 µM with CCRF-CEM leukemia. Also, the GI50 with ACHN renal is 15.7 µM; in the experiment with SNB-19 CNS it was 28.1 µM; in the experiment with EKVX NSCLC, 2.49 µM. Further, the TGI with MDA-MB-231 breast amounted to 31.9 µM; in the experiment with SK-MEL-5 melanoma it was 31.7 µM; with SR leukemia it was 64.7 µM; in the experiment on HOP-62 NSCLC, 49.7 µM; with SK-OV-3 ovarian, 61.3 µM; with CCRF-CEM leukemia it was 73.9 µM. The TGI in the experiment with ACHN renal was 32.8 µM; in the experiment on SNB-19 CNS it was greater than 100 µM; with EKVX NSCLC, 30.6 µM.

On to `O=c1[nH]c(=O)n(Cc2ccc(C34CC5CC(CC(C5)C3)C4)c(O)c2)cc1F`, for which the GI50 in the experiment with MDA-MB-231 breast is 14.3 µM; in the experiment on SK-MEL-5 melanoma, 11.2 µM; in the experiment on SR leukemia it was 5.32 µM; in the experiment with HOP-62 NSCLC, 14.6 µM; in the experiment on SK-OV-3 ovarian it was 21 µM; in the experiment with HCC-2998 colon, 14.5 µM. Also, the GI50 with ACHN renal is 12.5 µM; in the experiment with SNB-19 CNS, 15.6 µM; in the experiment on EKVX NSCLC, 16.4 µM. In addition, the TGI was 28.9 µM with MDA-MB-231 breast; 23.3 µM in the experiment with SK-MEL-5 melanoma; 19.9 µM in the experiment on SR leukemia; 31.4 µM in the experiment with HOP-62 NSCLC; 55.7 µM in the experiment on SK-OV-3 ovarian; 28.1 µM in the experiment on HCC-2998 colon. Also, the TGI is 25.2 µM in the experiment on ACHN renal, 34 µM with SNB-19 CNS and 35.7 µM in the experiment with EKVX NSCLC.

Take `Cc1cc[c]([Sb]2[O]C(CO)C(C(O)C(O)C(=O)O)[O]2)cc1` (configuration not stated): the GI50 in the experiment on MDA-MB-231 breast is 78 µM; in the experiment with SK-MEL-5 melanoma, greater than 100 µM; with SR leukemia, 47.2 µM; with HOP-62 NSCLC, 45.2 µM; in the experiment on CCRF-CEM leukemia, greater than 100 µM; in the experiment on ACHN renal it was greater than 100 µM. Besides, the GI50 is 60.6 µM in the experiment with SNB-19 CNS and 41 µM with EKVX NSCLC. Besides, the TGI in the experiment with MDA-MB-231 breast, with SK-MEL-5 melanoma, in the experiment on SR leukemia, in the experiment with HOP-62 NSCLC, in the experiment with CCRF-CEM leukemia and in the experiment on ACHN renal was greater than 100 µM each time. The TGI in the experiment on SNB-19 CNS and with EKVX NSCLC was greater than 100 µM each time.

`COc1ccc(-c2cc(=O)c3c(C)ccnc3[nH]2)cc1`: the TGI in the experiment on MDA-MB-231 breast is greater than 100 µM; in the experiment with SK-MEL-5 melanoma, 14.7 µM; in the experiment with HOP-62 NSCLC, 92.4 µM; in the experiment with SK-OV-3 ovarian, greater than 100 µM; in the experiment on HCC-2998 colon, greater than 100 µM; with CCRF-CEM leukemia, 44.8 µM. For the same molecule, the TGI in the experiment on ACHN renal, in the experiment on SNB-19 CNS and in the experiment with EKVX NSCLC was greater than 100 µM in each case. Also, in the experiment on SK-MEL-5 melanoma, the GI50 is 3.87 µM.

Take `COc1cc(OC)c(OC)cc1/C=C/c1ccccn1`: the TGI with MDA-MB-231 breast, in the experiment on SK-MEL-5 melanoma, in the experiment with HOP-62 NSCLC, in the experiment with SK-OV-3 ovarian, in the experiment with HCC-2998 colon and in the experiment on CCRF-CEM leukemia was greater than 10 µM in each case. The TGI in the experiment on ACHN renal, with SNB-19 CNS and in the experiment on EKVX NSCLC was greater than 10 µM throughout.

Regarding `O=C(O)C1CCCN1` (configuration not stated), the TGI with MDA-MB-231 breast, with SK-MEL-5 melanoma, in the experiment with SR leukemia, in the experiment with HOP-62 NSCLC, with SK-OV-3 ovarian and in the experiment on HCC-2998 colon was greater than 100 µM throughout. Further, the TGI in the experiment on ACHN renal, in the experiment on SNB-19 CNS and in the experiment with EKVX NSCLC was greater than 100 µM each time.

Take `O=c1oc2ccccc2cc1P(=O)(O)O`: the TGI in the experiment with MDA-MB-231 breast, in the experiment with SK-MEL-5 melanoma, in the experiment on SR leukemia, in the experiment with HOP-62 NSCLC, in the experiment with HCC-2998 colon and in the experiment on CCRF-CEM leukemia was greater than 100 µM each time. The TGI in the experiment with ACHN renal, in the experiment with SNB-19 CNS and with EKVX NSCLC was greater than 100 µM in each case.

Consider `COc1ccc2c(c1)c(-c1ccc(-c3cn(C)c4ccc(OC)cc34)s1)cn2C`, for which the GI50 in the experiment on MDA-MB-231 breast, in the experiment on SK-MEL-5 melanoma, in the experiment with SR leukemia, with HOP-62 NSCLC, in the experiment with SK-OV-3 ovarian and in the experiment on HCC-2998 colon was greater than 100 µM throughout. The GI50 in the experiment with ACHN renal, in the experiment with SNB-19 CNS and with EKVX NSCLC was greater than 100 µM throughout. For the same molecule, the TGI in the experiment on MDA-MB-231 breast, in the experiment on SK-MEL-5 melanoma, in the experiment with SR leukemia, with HOP-62 NSCLC, in the experiment with SK-OV-3 ovarian and in the experiment with HCC-2998 colon was greater than 100 µM each time. Moreover, the TGI in the experiment on ACHN renal, in the experiment on SNB-19 CNS and in the experiment with EKVX NSCLC was greater than 100 µM throughout.

Values taken from PubChem BioAssay (NCI).
